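How tested: cells in 96-well plates exposed to compound for 48 hours at five concentrations. The concentration for 50% growth inhibition is given as GI50. TGI: concentration producing complete growth inhibition.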
Columns and labels:
Assay in all cases: DTP human tumour cell line panel, 48 h
[1] = test system: NCI-H226 lung
[2] = test system: UO-31 renal
[3] = test system: U251 CNS
[4] = test system: HOP-62 NSCLC
[5] = test system: SF-268 CNS
[6] = test system: SW-620 colon
[7] = test system: NCI-H522 lung
[8] = test system: BT-549 breast
[9] = test system: OVCAR-5 ovarian
[10] = test system: HOP-92 NSCLC

SMILES | GI50 [1] [µM] | TGI [1] [µM] | GI50 [2] [µM] | TGI [2] [µM] | GI50 [3] [µM] | TGI [3] [µM] | GI50 [4] [µM] | TGI [4] [µM] | GI50 [5] [µM] | TGI [5] [µM] | GI50 [6] [µM] | TGI [6] [µM] | GI50 [7] [µM] | TGI [7] [µM] | GI50 [8] [µM] | TGI [8] [µM] | GI50 [9] [µM] | TGI [9] [µM] | GI50 [10] [µM] | TGI [10] [µM]
COc1ccc(/C=C\c2cc(OC)c(OC)c(OC)c2)cc1NC(=O)/C=C/c1ccc(OC)c(OC)c1 | 4.03 | > 100 | 6.21 | > 100 | 3.53 | > 100 | 5.42 | > 100 | 7.29 | > 100 | 4.88 | > 100 | 2.61 | > 100 | 7.7 | > 100 | 7.69 | > 100 | > 100 | > 100
O=[N+]([O-])c1ccc(Sc2cccc[n+]2[O-])c2nonc12 | 21 | > 65.3 | 5.24 | 17.4 | 3.56 | 17.6 | 28 | > 56.4 | 5.27 | 21.1 | 1.65 | 3.41 | 1.78 | 3.79 | 12.7 | 25.8 | 4.32 | 17.9 | 5.45 | 23.7
O=C(CCN1CCCC1)Nc1ccc2c(Nc3ccc(F)cc3)c3ccccc3nc2c1 | 1.41 | 3.21 | 1.16 | 2.55 | 1.17 | 3.03 | 0.864 | 3.7 | 1.19 | 2.82 | 0.64 | 2.29 | 1.31 | 3.25 | 1.73 | 4.28 | 1.95 | 4.7 | 1.18 | 2.68
CN1CCN(C2=C(Cl)C(=O)c3ccccc3C2=O)CC1 | 3.31 | 10.4 | 1.22 | 2.63 | 1.72 | 3.28 | 2.04 | 5.12 | 2.82 | 10.9 | 1.67 | 3.23 | 0.38 | 1.64 | 1.97 | 4.75 | 2.03 | 4.18 | 1.52 | 3.07
COc1ccc(Cn2cc3c(c2-c2ccccc2)CCc2cnoc2-3)cc1 | 0.476 | > 100 | 0.677 | > 100 | 0.264 | > 100 | 0.279 | > 48.5 | 0.488 | > 100 | 0.113 | > 100 | 0.0327 | 1.15 | 0.389 | > 100 | 0.505 | > 100 | 3.31 | > 100
O=C1c2ccccc2C(=O)N1c1ccc(Cc2ccc(N3C(=O)c4ccccc4C3=O)cc2)cc1 | – | > 100 | – | > 100 | – | > 100 | – | > 100 | – | > 100 | – | > 100 | – | > 100 | – | > 100 | – | > 100 | – | > 100
CC(NCCN(C)C)C1CCC2C3CCc4cc(O)ccc4C3CCC12C (stereo not given) | – | 34 | – | 3.76 | – | 4.35 | – | 8.7 | – | 17.5 | – | 12.7 | – | 10.6 | – | 31.4 | – | 18.3 | – | 13.1
O=C(O)/C=C/c1c2ccc(=O)c(O)c-2oc2c(O)c(O)ccc12 | – | > 100 | – | > 100 | – | 35.3 | – | 61.1 | – | > 100 | – | 49.6 | – | > 100 | – | > 100 | – | > 100 | – | > 100
